The results in this text go back to patent US20150306108A1, “COMPOSITIONS OF ALDH1A1 INHIBITORS AND METHODS OF USE IN TREATING CANCER” (Indiana University Research & Technology Corporation, priority 2014, published 2015).

In one assay the target is T1, ALDH1A3 (Homo sapiens, UniProt P47895).
T1 sequence (P47895 1-512): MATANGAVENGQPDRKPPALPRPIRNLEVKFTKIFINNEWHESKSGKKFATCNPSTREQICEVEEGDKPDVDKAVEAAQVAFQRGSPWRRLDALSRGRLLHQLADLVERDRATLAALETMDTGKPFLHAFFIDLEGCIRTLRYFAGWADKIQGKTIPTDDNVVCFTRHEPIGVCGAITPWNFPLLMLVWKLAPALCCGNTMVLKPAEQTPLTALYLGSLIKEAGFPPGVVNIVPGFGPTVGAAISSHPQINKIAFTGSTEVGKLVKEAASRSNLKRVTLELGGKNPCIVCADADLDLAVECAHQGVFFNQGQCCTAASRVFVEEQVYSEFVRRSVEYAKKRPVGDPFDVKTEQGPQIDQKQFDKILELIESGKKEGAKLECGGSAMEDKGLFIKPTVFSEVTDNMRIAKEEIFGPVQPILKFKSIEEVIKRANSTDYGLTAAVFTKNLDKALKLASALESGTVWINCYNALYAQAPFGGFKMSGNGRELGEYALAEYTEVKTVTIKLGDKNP
Nature of the assay: ALDH1A3 aldehyde oxidation activity assay. The format is biochemical. The following applies: for effect on aldehyde oxidation catalyzed by ALDH1A3: 100 μM compound (CM037: concentrations up to 100 μM).

Another assay concerns the target T2, ALDH3A1 (Homo sapiens, UniProt P30838).
T2 construct: made in house
T2 sequence (P30838 1-453): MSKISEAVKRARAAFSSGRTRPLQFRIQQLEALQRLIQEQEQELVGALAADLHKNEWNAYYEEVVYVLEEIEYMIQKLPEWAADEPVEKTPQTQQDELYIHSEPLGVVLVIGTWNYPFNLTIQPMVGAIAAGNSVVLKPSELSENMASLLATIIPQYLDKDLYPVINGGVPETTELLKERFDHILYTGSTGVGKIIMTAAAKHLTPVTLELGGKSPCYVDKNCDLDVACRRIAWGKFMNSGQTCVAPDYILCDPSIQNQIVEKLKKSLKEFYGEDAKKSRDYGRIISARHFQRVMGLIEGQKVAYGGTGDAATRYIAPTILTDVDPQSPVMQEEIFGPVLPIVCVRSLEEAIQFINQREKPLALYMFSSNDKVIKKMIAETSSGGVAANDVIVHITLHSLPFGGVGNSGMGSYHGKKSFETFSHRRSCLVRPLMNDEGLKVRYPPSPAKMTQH
Description: ALDH3A1 benzaldehyde oxidation activity assay. The format is biochemical. The following applies: for IC50: Table 4, NI/NI(A) at 100 μM compound, read-out: IC50 in μM (SE) ALDH3A1. The method, then: Hits from the HTS were ordered from ChemDiv to determine if they had any effect on aldehyde oxidation and whether they were selective for ALDH1A1 compared to ALDH2 and ALDH3A1. Dehydrogenase activity of the three isoenzymes were assayed by monitoring the production of NADH at 340 nm (molar extinction coefficient of 6220 M^−1 cm^−1) on a Beckman DU-640 or Cary 300 Bio UV-Vis spectrophotometer for 2 to 3 minutes. For ALDH1A1 and ALDH2, the reaction contained 100-200 nM enzyme, 200 μM NAD^+, 100 μM propionaldehyde, and 1% DMSO in 50 mM Na^+ BES, pH 7.5 at room temperature. For ALDH3A1, the reaction contained 20 nM enzyme, 200 μM NAD^+, 300 μM benzaldehyde, and 1% DMSO in either 100 mM sodium phosphate or 50 mM Na^+ BES at pH 7.5 at room temperature.
For most compounds, 20 μM concentration was used for the selectivity assays. […] Following a 2 minute incubation of enzyme, compound, and NAD^+, the reaction was initiated by adding substrate. […] Data were fit to the four parameter EC50 equation using SigmaPlot (StatSys v12.3).
Dehydrogenase activity of purified recombinant ALDH1A1, ALDH1A2, ALDH1A3, ALDH1B1, ALDH2, and ALDH3A1 was assayed spectrophotometrically by monitoring the formation of NADH at 340 nm (molar extinction coefficient of 6220 M^−1 cm^−1) on a Beckman DU-640 or Cary 300 Bio UV-Vis spectrophotometer. Characterization of ALDH1A1 WT and ALDH1A1 G458N were performed by co-varying acetaldehyde and NAD^+ concentrations in reactions containing 150-300 nM enzyme, 50-500 μM or 20-200 μM acetaldehyde, and 50-500 μM NAD^+ in 50 mM sodium BES, pH 7.5 at 25° C. Reactions were initiated by adding enzyme. Selectivity of compounds for dehydrogenase activity of ALDH1A1, ALDH1A2, ALDH1A3, ALDH1B1 and ALDH2 were measured in a solution containing 100-200 nM enzyme, 200 μM NAD^+, 1% DMSO, and 100 μM propionaldehyde (non-saturating for all enzymes tested, except ALDH2) in 50 mM sodium BES. ALDH3A1 activity was measured under the following conditions: 25 nM enzyme, 200 μM NAD^+, 1% DMSO, and 300 μM benzaldehyde (˜KM) in either 100 mM sodium phosphate buffer, pH 7.5 or 50 mM sodium BES, pH 7.5. All assays were performed at 25° C. and were initiated by the addition of the aldehyde substrate following a 2 minute pre-incubation with compound and cofactor. Selectivity was initially tested using 20 μM compound, with ALDH1A1-selective modulators further tested using 100 μM compound. […] After a 2 minute pre-incubation with compound and NAD^+, all reactions were initiated by the addition of propionaldehyde. Data were fit to the four parameter EC50 equation using SigmaPlot (StatSys v12.3). The values represent the average of three independent experiments (each n=3). The mode of inhibition was determined via steady-state kinetics by co-varying inhibitor and substrate concentrations at fixed concentration of the second substrate. All reactions contained 100-150 nM ALDH1A1 and 1% DMSO in 50 mM sodium BES, pH 7.5 at 25° C. […] All data were fit to competitive, noncompetitive, uncompetitive, and mixed inhibition models using both single substrate-single inhibitor or tight binding inhibition programs in SigmaPlot (StatSys v12.3). The appropriate model was selected through analysis of goodness-of-fit and the residuals of those fits. The values represent the average of three independent experiments (each n=3) using at least two protein preps.
ALDH1A1, ALDH1A2, ALDH1A3, ALDH2, and ALDH3A1 were produced and purified as previously described. A highthroughput screen (HTS) of 64,000 compounds from the ChemDiv Corp. was performed to identify activators and inhibitors of ALDH1A1. The hydrolysis of para-nitrophenylacetate was used as a measure ALDH1A1 activity (see SM). Selectivity for closely related orthologs was tested at 20 and 100 μM using purified recombinant human ALDH1A1, ALDH1A2, ALDH1A3, ALDH2, and ALDH3A1. […]

[1] abbreviates: Table 4, NI/NI(A) at 100 μM compound, read-out: IC50 in μM (SE) ALDH1A3.

Where two headings read alike, the source gives them in different places.

In the case of `CC(C)CCn1c(CN2CCN(C(=O)c3ccco3)CC2)nc2c1c(=O)n(C)c(=O)n2C` [CM026], the “effect on ALDH1A3” value at ALDH1A3 (20 μM compound) was “no effect”. Besides, at ALDH1A3, the “effect on aldehyde oxidation catalyzed by ALDH1A3” value is listed as “modestly increased”. The “effect on ALDH3A1” value at ALDH3A1 (20 μM compound) was “no effect”. In addition, the IC50 at ALDH3A1 was more than 100 µM.
Consider `Cn1c(=O)c2c(nc(CN3CCC(C(N)=O)CC3)n2CCCc2ccccc2)n(C)c1=O` [CM028], for which the IC50 at ALDH1A3 (setting [1]) and at ALDH3A1 was more than 100 µM each time.
As for `CCOC(=O)CSc1nc2c(sc3ccccc32)c(=O)n1CCCN1CCCC1` [CM037, ethyl-2-((4-oxo-3-(3-(pryrrolidin-1-yl)propyl)-3,4-dihydrobenzo[4,5]thioeno[3,2-d]pyrimidin-2-yl)thio)acetate], the “effect on aldehyde oxidation catalyzed by ALDH1A3” value on ALDH1A3 is on record as “no effect”. On ALDH3A1 (concentrations up to 100 μM), the “effect on ALDH3A1” value is recorded as “no effect”.
As for `CC(C)CCn1c(CN2CCOCC2)nc2c1c(=O)n(C)c(=O)n2C` [CM056], the IC50 on ALDH1A3 (setting [1]) and at ALDH3A1 was more than 100 µM each time.
For `COc1ccc(C(=O)CSC#N)cc1OC` [CM302], at ALDH3A1 (20 μM compound), the “effect on ALDH3A1” value was “To a limited degree”. Besides, on ALDH3A1 (fold higher), the “IC50 with ALDH3A1 compared to ALDH1A1 and ALDH2” value is “greater than 10 fold”.
Take `Cn1c(=O)c2c(ncn2C)n(C)c1=O` [Caffeine, reference compound]: the IC50 at ALDH1A3 (setting [1]) and at ALDH3A1 was more than 100 µM in each case.
`Cn1c(=O)c2[nH]cnc2n(C)c1=O` [Theophylline, reference compound]: the IC50 on ALDH1A3 and at ALDH3A1 was more than 100 µM in each case.
